Data from PMC7031696 (Cell chemical biology, 2019).
Where two headings read alike, the source gives them in different places.

What was measured:
[1] = test system: Plasmodium falciparum 3D7-A10 parasites; experiment: Stage specificity assay (8-h exposure of synchronized stages, IC50^8h); assay type: cell-based; conditions: for IC50: Plasmodium falciparum
[2] = test system: 3D7-MR4 trophozoite parasite-infected RBCs; experiment: Metabolomic profiling (hydrophilic metabolite changes, UHPLC-MS); assay type: cell-based, Plasmodium falciparum
[3] = test system: asynchronous 3D7-A10 parasite cultures; experiment: Standard 72-h exposure asexual blood stage susceptibility assay (IC50^72h); assay type: cell-based, Plasmodium falciparum; conditions: Plasmodium falciparum, 3D7, 72 h, read-out: Overall (72hr assay) Mean IC50 (IC50^72h)

CN(C)c1ccc2nc3ccc(=[N+](C)C)cc-3sc2c1 [Methylene blue, reference compound]
Ratio lowest IC50 8hr/IC50 72hr ([1]; 3D7-A10): 1.8
IC50 ([1]; 3D7, read-out: Early rings Mean IC50 (IC50^8h), 8-h exposure 0–8 hr, 3D7-A10, survival at 60 h): 3.2 nM
IC50 ([1]; 3D7, read-out: Early trophozoites Mean IC50 (IC50^8h), 8-h exposure 16–24 hr, 3D7-A10, survival at 60 h): 5.9 nM
IC50 ([1]; 3D7, read-out: Late rings Mean IC50 (IC50^8h), 8-h exposure 8–16 hr, 3D7-A10, survival at 60 h): 13.3 nM
IC50 ([1]; 3D7, read-out: Late trophozoites Mean IC50 (IC50^8h), 8-h exposure 24–32 hr, 3D7-A10, survival at 60 h): 8.3 nM
IC50 ([1]; 3D7, read-out: Schizonts Mean IC50 (IC50^8h), 8-h exposure 32–40 hr, 3D7-A10, survival at 60 h): 64.8 nM
Stage of peak activity (Figure 6) ([1]; period when the parasite was most susceptible (lowest IC50^8h)): rings and trophozoites
changes within the set of metabolites detected (low fold change group) ([2]; 10 × IC50^72h, 2.5 hr, trophozoites): did not induce major changes
Log2(fold changes) 3-phosphoglycerate ([2]; metabolite 3-phosphoglycerate, log2 fold change): 0.1717
Log2(fold changes) 4-Pyridoxic acid ([2]; metabolite 4-Pyridoxic acid, log2 fold change): 0.0000
Log2(fold changes) 4-aminobutyrate ([2]; metabolite 4-aminobutyrate, log2 fold change): -0.1073
Log2(fold changes) 4-phosphopantetheine ([2]; metabolite 4-phosphopantetheine, log2 fold change): 0.0000
Log2(fold changes) 4-phosphopantothenate ([2]; metabolite 4-phosphopantothenate, log2 fold change): -0.3089
Log2(fold changes) 5-aminopentanoic acid ([2]; metabolite 5-aminopentanoic acid, log2 fold change): 0.0000
Log2(fold changes) 5-methyl-THF ([2]; metabolite 5-methyl-THF, log2 fold change): 0.0000
Log2(fold changes) 5-phosphoribosyl-1-pyrophosphate ([2]; metabolite 5-phosphoribosyl-1-pyrophosphate, log2 fold change): 0.7627
Log2(fold changes) 6-phospho-D-gluconate ([2]; metabolite 6-phospho-D-gluconate, log2 fold change): 0.0184
Log2(fold change) HVDD ([2]; metabolite HVDD): 0.0000
Log2(fold change) Hydroxyisocaproic acid ([2]; metabolite Hydroxyisocaproic acid): 0.0000
Log2(fold change) IDP ([2]; metabolite IDP): 0.2471
Log2(fold change) IMP ([2]; metabolite IMP): -0.1535
Log2(fold change) Inositol ([2]; metabolite Inositol): 0.0000
Log2(fold change) Isopentyl-PP ([2]; metabolite Isopentyl-PP): 0.0000
Log2(fold change) L-arginino-succinate ([2]; metabolite L-arginino-succinate): 0.0000
Log2(fold change) LD ([2]; metabolite LD): -0.0546
Log2(fold change) Myristoyl/tetradecanoyl-CoA ([2]; metabolite Myristoyl/tetradecanoyl-CoA): 0.0000
Log2(fold change) N-Acetyl-L-alanine ([2]; metabolite N-Acetyl-L-alanine): 0.0660
Log2(fold change) N-acetyl-L-ornithine ([2]; metabolite N-acetyl-L-ornithine): -0.0972
Log2(fold change) N-acetyl-glucosamine-1/6-phosphate ([2]; metabolite N-acetyl-glucosamine-1/6-phosphate): -0.3026
Log2(fold change) N-acetyl-glutamate ([2]; metabolite N-acetyl-glutamate): -0.1200
Log2(fold change) N-acetyl-glutamine ([2]; metabolite N-acetyl-glutamine): 0.0000
Log2(fold change) N-carbamoyl-L-aspartate ([2]; metabolite N-carbamoyl-L-aspartate): -0.4399
Log2(fold change) NAD+ ([2]; metabolite NAD+): -0.1775
Log2(fold change) NADH ([2]; metabolite NADH): 0.6869
Log2(fold change) NADP+ ([2]; metabolite NADP+): 0.0190
Log2(fold change) NADPH ([2]; metabolite NADPH): 0.5257
Log2(fold change) O-acetyl-L-serine ([2]; metabolite O-acetyl-L-serine): 0.0000
Log2(fold change) Octoluse 8/1P ([2]; metabolite Octoluse 8/1P): -0.1481
Log2(fold change) Octoluse Bisphosphate ([2]; metabolite Octoluse Bisphosphate): -0.0868
Log2(fold change) PD ([2]; metabolite PD): -0.1726
Log2(fold change) PE ([2]; metabolite PE): -0.0321
Log2(fold change) PEE ([2]; metabolite PEE): 0.0787
Log2(fold change) PEEK ([2]; metabolite PEEK): 0.2857
Log2(fold change) PVNF ([2]; metabolite PVNF): 0.3021
Log2(fold change) Pyroglutamic acid ([2]; metabolite Pyroglutamic acid): -0.1430
Log2(fold change) Pyrophosphate ([2]; metabolite Pyrophosphate): 0.0000
Log2(fold change) Ribose-5-phosphate ([2]; metabolite Ribose-5-phosphate): 0.0744
Log2(fold change) S-adenosyl-L-homocysteine ([2]; metabolite S-adenosyl-L-homocysteine): -0.2409
Log2(fold change) S-adenosyl-L-methioninamine ([2]; metabolite S-adenosyl-L-methioninamine): 0.0000
Log2(fold change) S-adenosyl-L-methionine ([2]; metabolite S-adenosyl-L-methionine): 0.0000
Log2(fold change) S-methyl-5'-thioadenosine ([2]; metabolite S-methyl-5'-thioadenosine): -0.0807
Log2(fold change) SD ([2]; metabolite SD): -0.0525
Log2(fold change) SDL ([2]; metabolite SDL): 0.0000
Log2(fold change) SID ([2]; metabolite SID): 0.0000
Log2(fold change) Sedoheptulose bisphosphate ([2]; metabolite Sedoheptulose bisphosphate): 0.0024
Log2(fold change) Thiamine pyrophosphate ([2]; metabolite Thiamine pyrophosphate): -0.2290
Log2(fold changes) UDP-D-glucose ([2]; metabolite UDP-D-glucose, log2 fold change): -0.0680
Log2(fold changes) UDP-D-glucuronate ([2]; metabolite UDP-D-glucuronate, log2 fold change): 0.0789
Log2(fold changes) UDP-N-acetyl-glucosamine ([2]; metabolite UDP-N-acetyl-glucosamine, log2 fold change): -0.1825
Log2(fold changes) UDP ([2]; metabolite UDP, log2 fold change): -0.3881
Log2(fold changes) UMP ([2]; metabolite UMP, log2 fold change): -0.2463
Log2(fold changes) UTP ([2]; metabolite UTP, log2 fold change): -0.0408
Log2(fold change) hydroxyphenylpyruvate ([2]; metabolite hydroxyphenylpyruvate): 0.0000
Log2(fold change) hydroxyproline/Aminolevulinate ([2]; metabolite hydroxyproline/Aminolevulinate): 0.0000
Log2(fold change) hypoxanthine ([2]; metabolite hypoxanthine): 0.0000
Log2(fold change) indole ([2]; metabolite indole): 0.0000
Log2(fold change) inosine ([2]; metabolite inosine): -0.4017
Log2(fold change) isoleucine ([2]; metabolite isoleucine): 0.7210
Log2(fold change) lactate ([2]; metabolite lactate): -0.1398
Log2(fold change) leucine ([2]; metabolite leucine): 0.2614
Log2(fold change) lysine ([2]; metabolite lysine): -0.0829
Log2(fold change) malate ([2]; metabolite malate): -0.0400
Log2(fold change) maleic acid ([2]; metabolite maleic acid): -0.0220
Log2(fold change) methionine ([2]; metabolite methionine): 0.1258
Log2(fold change) myo-inositol ([2]; metabolite myo-inositol): -0.2003
Log2(fold change) nicotinamide mononucleotide ([2]; metabolite nicotinamide mononucleotide): -0.1519
Log2(fold change) nicotinate ([2]; metabolite nicotinate): -0.3017
Log2(fold change) ornithine ([2]; metabolite ornithine): 0.0000
Log2(fold change) orotate ([2]; metabolite orotate): -0.5750
Log2(fold change) orotidine-5'-phosphate ([2]; metabolite orotidine-5'-phosphate): -0.6269
Log2(fold change) oxaloacetate ([2]; metabolite oxaloacetate): 0.0000
Log2(fold change) p-aminobenzoate ([2]; metabolite p-aminobenzoate): 0.0000
Log2(fold change) p-hydroxybenzoate ([2]; metabolite p-hydroxybenzoate): 0.0000
Log2(fold change) pantothenate ([2]; metabolite pantothenate): -1.6576
Log2(fold change) phenylalanine ([2]; metabolite phenylalanine): 0.0379
Log2(fold change) phenylpyruvate ([2]; metabolite phenylpyruvate): 0.0000
Log2(fold change) phosphoenolpyruvate ([2]; metabolite phosphoenolpyruvate): 0.1672
Log2(fold change) prephenate ([2]; metabolite prephenate): 0.0000
Log2(fold change) proline ([2]; metabolite proline): 0.1190
Log2(fold change) pyridoxine ([2]; metabolite pyridoxine): -0.1182
Log2(fold change) pyruvate ([2]; metabolite pyruvate): -0.0447
Log2(fold change) riboflavin ([2]; metabolite riboflavin): -0.0900
Log2(fold change) ribose ([2]; metabolite ribose): 0.0000
Log2(fold change) ribose-phosphate ([2]; metabolite ribose-phosphate): -0.1993
Log2(fold change) ribulose-5-phosphate ([2]; metabolite ribulose-5-phosphate): -0.1201
Log2(fold change) serine ([2]; metabolite serine): -0.0692
Log2(fold change) sn-glycerol-3-phosphate ([2]; metabolite sn-glycerol-3-phosphate): 0.0549
Log2(fold change) succinate/Methylmalonic acid ([2]; metabolite succinate/Methylmalonic acid): 0.4289
Log2(fold change) succinyl-CoA/methylmalonyl-CoA ([2]; metabolite succinyl-CoA/methylmalonyl-CoA): 0.0000
Log2(fold change) taurine ([2]; metabolite taurine): 0.1250
Log2(fold change) thiamine ([2]; metabolite thiamine): -0.2233
Log2(fold change) threonine/homoserine ([2]; metabolite threonine/homoserine): -0.1021
Log2(fold change) thymidine ([2]; metabolite thymidine): 0.0000
Log2(fold changes) thymine ([2]; metabolite thymine, log2 fold change): 0.0000
Log2(fold changes) trehalose-6-Phosphate ([2]; metabolite trehalose-6-Phosphate, log2 fold change): 0.0000
Log2(fold changes) tryptophan ([2]; metabolite tryptophan, log2 fold change): 0.0214
Log2(fold changes) tyrosine ([2]; metabolite tyrosine, log2 fold change): 0.0876
Log2(fold changes) uridine ([2]; metabolite uridine, log2 fold change): -0.4227
IC50 [3]: 1.8 nM
